From patent publication US20190010158A1, “ANTITUMOR EFFECT POTENTIATOR COMPRISING PYRROLOPYRIMIDINE COMPOUND” (TAIHO PHARMACEUTICAL CO., LTD, priority 2015, published 2019) come the findings set out here.

The test system of series [1] is human diffuse large B-cell lymphoma DB cell line. Description: Cell growth inhibition 2, DB. Format: cell-based.
The subject of series [2] is human breast cancer MDA-MB-453 cell line. Description: Cell growth inhibition 2, MDA-MB-453. Format: cell-based.
For series [3], the system named is human acute T lymphoblastic leukemia CCRF-CEM cell lines. The experiment in a line: Cell growth inhibition 1 (CellTiter-Glo). Format: cell-based. The conditions noted are these: culture with test compound 72 hours. Background: Cellular ATP, detected with luciferase, serves as a proxy for viable cell number.
Series [4] has as its system human acute leukemia MV-4-11 cell line. The experiment in a line: Cell growth inhibition 2, MV-4-11. It counts as cell-based. The settings on record: MV4-11.
In series [5] the test system is human prostate cancer LNCAP.FGC cell line. Description: Cell growth inhibition 2, LNCaP.FGC. Format: cell-based.
For series [6], the system named is human colon cancer HCT116 cell line. The experiment in a line: Cell growth inhibition 2, HCT116. The settings on record: HCT-116. Format: cell-based.
Series [7] relates to human skin cancer A-431 cell line. The experiment in a line: Cell growth inhibition 2, A-431. Format: cell-based.
For series [8], the system named is human multiple myeloma U266B1 cell line. Description: Cell growth inhibition 2, U266B1. It counts as cell-based.
The test system of series [9] is human pancreatic cancer Capan-1 cell line. Description: Cell growth inhibition 2, Capan-1. Format: cell-based.
In series [10] the test system is human lung cancer A-427 cell line. Description: Cell growth inhibition 2, A-427. It counts as cell-based.
The next series has as its system HL-60. The experiment in a line: Example 1: combined use with proteasome inhibitor, cell growth inhibition test (IC50 ratio, CI), HL-60. It counts as cell-based. The conditions noted are these: for CI: at ED50.
Series [11] concerns tumor cell lines shown in Table 40. Description: Example 10: combined use with HDAC inhibitor, cell growth inhibition test (IC50 ratio, CI). It counts as cell-based. The settings on record: U266B1; for CI: at ED50; for Comprehensive Evaluation: combined use with Reference Example Compound 55.
Series [12] deals with T1, NAE (heterodimer of APPBP1 and UBA3) (Homo sapiens, UniProt Q8TBC4).
T1 construct: amino acids 1 to 463 of human UBA3 protein; made in house; host or cells: Sf9 insect cells (baculovirus co-infection) for NAE; E. coli BL21 (DE3) for GST-UBC12
T1 sequence (Q8TBC4 1-463): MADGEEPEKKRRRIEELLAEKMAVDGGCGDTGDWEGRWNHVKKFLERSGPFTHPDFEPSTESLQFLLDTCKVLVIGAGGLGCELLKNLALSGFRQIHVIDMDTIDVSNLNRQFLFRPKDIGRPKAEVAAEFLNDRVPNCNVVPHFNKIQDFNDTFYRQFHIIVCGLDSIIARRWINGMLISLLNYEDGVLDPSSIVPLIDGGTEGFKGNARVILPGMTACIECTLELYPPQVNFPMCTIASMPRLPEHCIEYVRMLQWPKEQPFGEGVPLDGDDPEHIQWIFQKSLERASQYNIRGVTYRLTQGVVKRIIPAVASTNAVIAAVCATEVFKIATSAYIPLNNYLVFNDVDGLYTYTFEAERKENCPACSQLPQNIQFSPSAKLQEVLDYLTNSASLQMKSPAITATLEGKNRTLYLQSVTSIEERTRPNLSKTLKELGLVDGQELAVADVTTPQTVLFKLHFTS
T1 sequence (Q13564 1-534 partner): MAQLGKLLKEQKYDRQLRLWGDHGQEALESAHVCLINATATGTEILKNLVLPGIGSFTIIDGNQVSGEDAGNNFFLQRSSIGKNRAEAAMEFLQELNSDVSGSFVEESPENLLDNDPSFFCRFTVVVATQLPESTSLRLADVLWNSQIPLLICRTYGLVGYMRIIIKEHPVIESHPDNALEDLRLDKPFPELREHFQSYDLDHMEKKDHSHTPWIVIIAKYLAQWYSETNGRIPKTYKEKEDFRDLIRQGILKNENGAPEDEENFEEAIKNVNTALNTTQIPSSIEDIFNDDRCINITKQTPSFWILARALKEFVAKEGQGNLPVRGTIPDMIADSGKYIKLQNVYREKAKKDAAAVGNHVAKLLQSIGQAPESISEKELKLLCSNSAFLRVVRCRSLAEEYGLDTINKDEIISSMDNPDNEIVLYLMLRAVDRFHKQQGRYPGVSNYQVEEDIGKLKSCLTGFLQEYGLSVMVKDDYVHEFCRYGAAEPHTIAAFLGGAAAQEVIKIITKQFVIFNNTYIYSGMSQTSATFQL
Description: Nedd8 conjugation inhibitory activity (AlphaScreen). It counts as biochemical. The conditions noted are these: purified NAE, GST-UBC12, ATP, Biotin-Nedd8, reaction 90 minutes. (Alpha assays give light when donor and acceptor beads are brought close together.)

In series [13] the test system is human osteo- and soft tissue sarcoma SJCRH30 cell line. The experiment in a line: Cell growth inhibition 2, SJCRH30. It counts as cell-based.
Series [14] relates to human clear cell sarcoma SU-CCS-1 cell lines. The experiment in a line: Example 18: tumor growth inhibition in mice, combinational treatment with doxorubicin. Format: in vivo. The settings on record: day 22. The text has this: RTVn=TVn/TV1 (equation D)
BWCn (%)=(BWn−BW1)/BW1×100 (equation F)
The test ended on day 22.
The control group was untreated.

Setting [15] is: IC50 of Reference Example Compound 55 : IC50 of other compound = 1:value.
Where [16] appears, read: SU-CCS-1 in mice, intravenously 8 mg/kg/day, day 1.

The structures appear in SMILES notation. Structures can show the parent of a compound that is named as a salt. A value given as a limit tells only on which side of the number the result lay.

For `NS(=O)(=O)OC[C@@H]1C[C@@H](n2ccc3c(N[C@H]4CCc5ccccc54)ncnc32)CC1O` (stereo partly drawn) [Comp. Example, N-[(1S)-1-indanyl]-7-[(1R)-3α-hydroxy-4α-(sulfamoyloxymethyl)cyclopentyl]-7H-pyrrolo[2,3-d]pyrimidin-4-amine], the IC50 in series [1] turned out to be 560 nM; in series [2] it was 1900 nM; in series [3], 89 nM; in series [4] it was 110 nM; in [5], 410 nM; in series [6] it was 89 nM. The IC50 in [7] amounted to 750 nM; in [8], 1400 nM; in series [9], 1500 nM; in series [10], 180 nM.

For the molecule `CC(C)C[C@H](NC(=O)CNC(=O)c1cc(Cl)ccc1Cl)B(O)O` [Ixazomib, ixazomib], in the series on HL-60 (setting [15]), the “IC50 Ratio” value was determined as 19. Further, the CI amounted to 0.82 in the series with HL-60 (Reference Example Compound 55:other compound 1:10) and 0.94 in the series on HL-60 (Reference Example Compound 55:other compound 1:30). For the same molecule, in the series on HL-60 (combined use with Reference Example Compound 55), the “Comprehensive Evaluation” value is given as “Additive (0.9-1.10)”.

Consider `Cc1[nH]c2ccccc2c1CCNCc1ccc(/C=C/C(=O)NO)cc1` [Panobinostat, panobinostat], for which the “IC50 Ratio” value in [11] (setting [15]) is listed as 0.08. For the same molecule, the CI was found to be 0.90 in [11] (Reference Example Compound 55:other compound 1:0.07) and 0.61 in series [11] (Reference Example Compound 55:other compound 1:0.22). Further, in series [11], the “Comprehensive Evaluation” value is on record as “Additive (0.9-1.10)”.

Take `Nc1ncnc2c1c(C#Cc1c(F)cccc1F)cn2[C@@H]1O[C@H](CNS(N)(=O)=O)[C@@H](O)[C@H]1O` [Reference Example 1, 4-Amino-5-[2-(2,6-difluorophenyl)ethynyl]-7-[(2R,3R,4S,5R)-3,4-dihydroxy-5-[(sulfamoylamino)methyl]tetrahydrofuran-2-yl]pyrrolo[2,3-d]pyrimidine]: the IC50 in series [12] was at most 0.003 µM; in series [1], 260 nM; in series [2], 460 nM; in [3], 6.2 nM; in series [4], 21 nM; in series [5], 650 nM. Also, the IC50 in [6] was 16 nM; in series [13] it was over 10000 nM; in series [7] it was 730 nM; in [8] it was 110 nM; in series [9] it was 730 nM; in series [10], 22 nM.

For the molecule `CNc1cc(F)c(C#Cc2cn([C@@H]3O[C@H](CNS(N)(=O)=O)[C@@H](O)[C@H]3O)c3ncnc(N)c23)c(F)c1` [Reference Example 25, 4-Amino-5-[2-[2,6-difluoro-4-(methylamino)phenyl]ethynyl]-7-[(2R,3R,4S,5R)-3,4-dihydroxy-5-[(sulfamoylamino)methyl]tetrahydrofuran-2-yl]pyrrolo[2,3-d]pyrimidine], the IC50 in series [1] stood at 120 nM; in [2], 480 nM; in series [3], 1.7 nM; in series [4], 11 nM; in series [5] it was 500 nM; in series [6] it was 6.4 nM. Also, the IC50 in series [13] was found to be 5100 nM; in [7], 120 nM; in series [8], 220 nM; in [9], 380 nM; in series [10], 5.4 nM.

Consider `Nc1ncnc2c1c(C#Cc1c(F)cc(N3CC[C@@H](F)C3)cc1F)cn2[C@@H]1O[C@H](CNS(N)(=O)=O)[C@@H](O)[C@H]1O` [Reference Example 29, 4-Amino-5-[2-[2,6-difluoro-4-[(3R)-3-fluoropyrrolidin-1-yl]phenyl]ethynyl]-7-[(2R,3R,4S,5R)-3,4-dihydroxy-5-[(sulfamoylamino)methyl]tetrahydrofuran-2-yl]pyrrolo[2,3-d]pyrimidine], for which the IC50 in [1] is 150 nM; in series [2], 640 nM; in [3], 4 nM; in series [4] it was 20 nM; in series [5], 280 nM; in series [6], 14 nM. Moreover, the IC50 in series [13] stood at 6600 nM; in series [7] it was 560 nM; in series [8] it was 420 nM; in series [9], 560 nM; in series [10], 49 nM.

Regarding `CN1CCOc2c1ccc(F)c2C#Cc1cn([C@@H]2O[C@H](CNS(N)(=O)=O)[C@@H](O)[C@H]2O)c2ncnc(N)c12` [Reference Example 64, 8-[2-[4-Amino-7-[(2R,3R,4S,5R)-3,4-dihydroxy-5-[(sulfamoylamino)methyl]tetrahydrofuran-2-yl]pyrrolo[2,3-d]pyrimidin-5-yl]ethynyl]-7-fluoro-4-methyl-2,3-dihydro-1,4-benzoxazine], the IC50 in [1] stood at 110 nM; in [2], 140 nM; in series [3], 5.8 nM; in [4], 32 nM; in [5], 680 nM; in series [6], 14 nM. Besides, the IC50 is 560 nM in [13], 710 nM in series [7], 1200 nM in series [9] and 91 nM in series [10].

In the case of `CN1CCOc2c1ccc(F)c2C#Cc1cn([C@@H]2C[C@H](CNS(N)(=O)=O)[C@@H](O)[C@H]2O)c2ncnc(N)c12` [Reference Example 122, 8-[2-[4-amino-7-[(1R,2S,3R,4R)-2,3-dihydroxy-4-[(sulfamoylamino)methyl]cyclopentyl]pyrrolo[2,3-d]pyrimidin-5-yl]ethynyl]-7-fluoro-4-methyl-2,3-dihydro-1,4-benzoxazine], the concentration for half-maximal inhibition (IC50) in series [1] was 120 nM; in series [2], 76 nM; in [3] it was 8.8 nM; in [4], 38 nM; in [5] it was 510 nM; in [6] it was 18 nM. The IC50 in series [13] amounted to 130 nM; in [7], 1600 nM; in series [8], 270 nM; in series [9], 890 nM; in [10] it was 22 nM.

`CSc1cccc(F)c1C#Cc1cn([C@@H]2C=C(CNS(N)(=O)=O)[C@@H](O)[C@H]2O)c2ncnc(N)c12` [Reference Example 130, 4-Amino-7-[(1R,4R,5S)-4,5-dihydroxy-3-[(sulfamoylamino)methyl]cyclopent-2-en-1-yl]-5-[2-(2-fluoro-6-methylsulfanyl-phenyl)ethynyl]pyrrolo[2,3-d]pyrimidine]: the IC50 is 130 nM in [1]; 32 nM in series [2]; 3.2 nM in series [3]; 25 nM in series [4]; 460 nM in [5]; 12 nM in series [6]. In addition, the IC50 in series [13] worked out at 170 nM; in series [7], 160 nM; in series [8] it was 24 nM; in series [9], 210 nM; in [10] it was 6.4 nM.

`O=C(CCCCCCC(=O)Nc1ccccc1)NO` [Vorinostat, vorinostat]: the “Comprehensive Evaluation” value in series [11] is given as “Additive (0.9-1.10)”.

Regarding `COc1cccc2c1C(=O)c1c(O)c3c(c(O)c1C2=O)C[C@@](O)(C(=O)CO)C[C@@H]3O[C@H]1C[C@H](N)[C@H](O)[C@H](C)O1` [doxorubicin hydrochloride], the “RTV22 compared with the control group (Dunnett's test)” value in [14] (SU-CCS-1 in BALB/cAJcl-nu/nu mice, reference example compound 12.5 or 25 mg/kg/day iv day 1 and 8, doxorubicin hydrochloride 8 mg/kg/day iv day 1) is “significantly lower”. Further, in series [14] (setting [16]), the “BWC22 (%) Mean ± SD” value is given as −0.3 ± 2.6%, the “RTV22 Mean ± SD” value is recorded as 6.6 ± 0.8 and the “T/C22 (%)” value was 74%.

The term IC50 denotes the concentration at which inhibition is half-maximal. A high value points to a need for much substance.
